In US9249145B2, “Heterocyclic derivatives of pyrazol-4-yl-pyrrolo[2,3-d]pyrimidines as janus kinase inhibitors” (Incyte Holdings Corporation, priority 2009, dated 2016):
Counter-ions that a name gives are not always drawn. Like-named read-outs stand apart in the source and are kept apart here.

Key:
[1] = target: T1, human JAK1 (a.a. 837-1142) (Homo sapiens, UniProt P23458); assay: In vitro JAK kinase assay (HTRF, phosphorylation of biotinylated peptide), JAK1; assay type: biochemical
T1 construct: The catalytic domains of human JAK1 (a.a. 837-1142); His tag (N); made in house; host or cells: insect cells (baculovirus)
T1 sequence (P23458 849-1154): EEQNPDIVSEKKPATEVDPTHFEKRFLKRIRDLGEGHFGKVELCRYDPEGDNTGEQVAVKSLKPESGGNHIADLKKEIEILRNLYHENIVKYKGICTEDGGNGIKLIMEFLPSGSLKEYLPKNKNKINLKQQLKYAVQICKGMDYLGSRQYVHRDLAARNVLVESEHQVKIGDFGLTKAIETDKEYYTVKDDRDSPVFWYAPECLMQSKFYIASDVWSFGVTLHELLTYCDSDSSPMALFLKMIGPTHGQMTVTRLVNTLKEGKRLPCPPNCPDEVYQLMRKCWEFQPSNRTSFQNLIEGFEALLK
Outline: (§1)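 IC50 from HTRF detection (Eu-Py20 antibody, SA-APC, 40 min) after EDTA quench. Reactions ran 1 h at room temperature with 500 nM biotinylated peptide in Tris pH 7.8 buffer with NaCl, DTT, BSA; ATP 90 μM for JAK1, 30 μM for JAK2 (Km), or 1 mM. Enzymes: His-tagged catalytic domains from insect cells.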

Jak2 (a.a. 828-1132) = target: T2, Jak2 (a.a. 828-1132) (Homo sapiens, UniProt O60674); assay: In vitro JAK kinase assay (HTRF, phosphorylation of biotinylated peptide), JAK2; assay type: biochemical
T2 construct: Jak2 (a.a. 828-1132); His tag (N); made in house; host or cells: insect cells (baculovirus)
T2 sequence (O60674 828-1132): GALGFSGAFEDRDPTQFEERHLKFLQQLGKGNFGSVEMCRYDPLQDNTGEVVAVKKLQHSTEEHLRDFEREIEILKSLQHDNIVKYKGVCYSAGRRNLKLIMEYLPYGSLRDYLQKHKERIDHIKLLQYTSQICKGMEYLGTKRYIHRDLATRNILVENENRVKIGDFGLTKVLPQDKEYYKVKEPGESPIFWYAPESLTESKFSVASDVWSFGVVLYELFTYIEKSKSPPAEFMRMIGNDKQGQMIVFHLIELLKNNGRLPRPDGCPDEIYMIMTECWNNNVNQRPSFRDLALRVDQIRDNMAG
Outline: as §1

[2] = 1 mM ATP, Examples 12-91, read-out: JAK1 IC50 (nM) @ 1 mM ATP
[3] = 1 mM ATP, Examples 12-91, read-out: JAK2 IC50 (nM) @ 1 mM ATP
[4] = 1 mM ATP, Examples 92-162, read-out: JAK1 IC50 (nM) @ 1 mM ATP
[5] = 1 mM ATP, Examples 92-162, read-out: JAK2 IC50 (nM) @ 1 mM ATP
[6] = Km ATP (90 μM for Jak1), Examples 1-11, read-out: IC50 (nM) @ Km ATP JAK1
[7] = 1 mM ATP, Examples 1-11, read-out: IC50 (nM) @ 1 mM ATP JAK2
[8] = Km ATP (30 μM for Jak2), Examples 1-11, read-out: IC50 (nM) @ Km ATP JAK2

SMILES | IC50 [1, 2] [nM] | IC50 (Jak2 (a.a. 828-1132); [3]) [nM] | IC50 [1, 4] [nM] | IC50 (Jak2 (a.a. 828-1132); [5]) [nM] | further results
Cc1cccc(Cl)c1NC(=O)N1CCN(CC(CC#N)n2cc(-c3ncnc4[nH]ccc34)cn2)CC1 (stereo not shown) [Example 71, 4-(2-(4-(7H-pyrrolo[2,3-d]pyrimidin-4-yl)-1H-pyrazol-1-yl)-3-cyanopropyl)-N-(2-chloro-6-methylphenyl)piperazine-1-carboxamide] | 10 to 50 | 10 to 50 |  |  | 
N#CCC(CN1CCCN(C(=O)c2ccccc2F)CC1)n1cc(-c2ncnc3[nH]ccc23)cn1 (stereo not shown) [Example 101, 4-[4-(2-fluorobenzoyl)-1,4-diazepan-1-yl]-3-[4-(7H-pyrrolo[2,3-d]pyrimidin-4-yl)-1H-pyrazol-1-yl]butanenitrile] |  |  | 20 to 50 | > 100 | 
CCC(CN1CCN(C(=O)c2cc(F)ccc2F)CC1)n1cc(-c2ncnc3[nH]ccc23)cn1 (stereo not shown) [Example 119, (4-(2-(4-(7H-pyrrolo[2,3-d]pyrimidin-4-yl)-1H-pyrazol-1-yl)butyl)piperazin-1-yl)(2,5-difluorophenyl)methanone] |  |  | 20 to 50 | 50 to 100 | 
N#CCC(CN1CCN(C(=O)c2ncc(F)cc2F)CC1)n1cc(-c2ncnc3[nH]ccc23)cn1 (stereo not shown) [Example 40, 3-(4-(7H-pyrrolo[2,3-d]pyrimidin-4-yl)-1H-pyrazol-1-yl)-4-(4-(3,5-difluoropicolinoyl)piperazin-1-yl)butanenitrile] | < 10 | 10 to 50 |  |  | 
Cc1c(Nc2ccccc2F)ncnc1N1CCC(C(CC#N)n2cc(-c3ncnc4[nH]ccc34)cn2)CC1 (stereo not shown) [Example 147, 3-(4-(7H-pyrrolo[2,3-d]pyrimidin-4-yl)-1H-pyrazol-1-yl)-3-(1-(6-(2-fluorophenylamino)-5-methylpyrimidin-4-yl)piperidin-4-yl)propanenitrile] |  |  | < 20 | > 100 | 
N#CCC(CN1CCN(C(=O)c2ccc(F)cc2Cl)CC1)n1cc(-c2ncnc3[nH]ccc23)cn1 (stereo not shown) [Example 39, 3-(4-(7H-pyrrolo[2,3-d]pyrimidin-4-yl)-1H-pyrazol-1-yl)-4-(4-(2-chloro-4-fluorobenzoyl)piperazin-1-yl)butanenitrile] | < 10 | 10 to 50 |  |  | 
CCC(CN1CCN(S(=O)(=O)c2cc(F)cc(F)c2)CC1)n1cc(-c2ncnc3[nH]ccc23)cn1 (stereo not shown) [Example 142, 4-(1-(1-(4-(3,5-difluorophenylsulfonyl)piperazin-1-yl)butan-2-yl)-1H-pyrazol-4-yl)-7H-pyrrolo[2,3-d]pyrimidine] |  |  | < 20 | 50 to 100 | 
N#CCC(CN1CCN(C(=O)Nc2cccc(C(F)(F)F)c2F)CC1)n1cc(-c2ncnc3[nH]ccc23)cn1 (stereo not shown) [Example 73, 4-(2-(4-(7H-pyrrolo[2,3-d]pyrimidin-4-yl)-1H-pyrazol-1-yl)-3-cyanopropyl)-N-(2-fluoro-3-(trifluoromethyl)phenyl)piperazine-1-carboxamide] | 10 to 50 | > 100 |  |  | 
N#CCC(CC1CCN(C(=O)c2ccc(F)cc2)CC1)n1cc(-c2ncnc3[nH]ccc23)cn1 (stereo not shown) [Example 8, 4-[1-(4-fluorobenzoyl)piperidin-4-yl]-3-[4-(7H-pyrrolo[2,3-d]pyrimidin-4-yl)-1H-pyrazol-1-yl]butanenitrile] |  |  |  |  | IC50 [1, 6]: < 10 nM; IC50 (Jak2 (a.a. 828-1132); [7]): < 10 nM; IC50 (Jak2 (a.a. 828-1132); [8]): < 10 nM
CCC(CN1CCN(S(=O)(=O)c2ccccc2C#N)CC1)n1cc(-c2ncnc3[nH]ccc23)cn1 (stereo not shown) [Example 128, 2-(4-(2-(4-(7H-pyrrolo[2,3-d]pyrimidin-4-yl)-1H-pyrazol-1-yl)butyl)piperazin-1-ylsulfonyl)benzonitrile] |  |  | < 20 | 50 to 100 | 
N#CCC(CN1CCN(S(=O)(=O)c2ccc3[nH]ncc3c2)CC1)n1cc(-c2ncnc3[nH]ccc23)cn1 (stereo not shown) [Example 22, 4-[4-(1H-indazol-5-ylsulfonyl)piperazin-1-yl]-3-[4-(7H-pyrrolo[2,3-d]pyrimidin-4-yl)-1H-pyrazol-1-yl]butanenitrile] | < 10 | < 10 |  |  | 
N#CCC(CN1CCCN(C(=O)c2ccc(Cl)cc2Cl)CC1)n1cc(-c2ncnc3[nH]ccc23)cn1 (stereo not shown) [Example 103, 4-[4-(2,4-dichlorobenzoyl)-1,4-diazepan-1-yl]-3-[4-(7H-pyrrolo[2,3-d]pyrimidin-4-yl)-1H-pyrazol-1-yl]butanenitrile] |  |  | 20 to 50 | > 100 | 
N#CCC(CN1CCN(S(=O)(=O)c2ccccc2C(F)(F)F)CC1)n1cc(-c2ncnc3[nH]ccc23)cn1 (stereo not shown) [Example 66, 3-(4-(7H-pyrrolo[2,3-d]pyrimidin-4-yl)-1H-pyrazol-1-yl)-4-(4-(2-(trifluoromethyl)phenylsulfonyl)piperazin-1-yl)butanenitrile] | < 10 | < 10 |  |  | 
C[C@@H]1CN(C(=O)c2ccc(C#N)cc2F)CCN1CC(CC#N)n1cc(-c2ncnc3[nH]ccc23)cn1 (single isomer, unassigned) [24, R-1] | < 10 | > 100 |  |  | 
N#CCC(CN1CCN(S(=O)(=O)c2ccc(Cl)s2)CC1)n1cc(-c2ncnc3[nH]ccc23)cn1 (stereo not shown) [Example 68, 3-(4-(7H-pyrrolo[2,3-d]pyrimidin-4-yl)-1H-pyrazol-1-yl)-4-(4-(5-chlorothiophen-2-ylsulfonyl)piperazin-1-yl)butanenitrile] | < 10 | < 10 |  |  | 
COc1ccc(C(=O)N2CCN(CC(CC#N)n3cc(-c4ncnc5[nH]ccc45)cn3)CC2)cc1Cl (stereo not shown) [Example 44, 3-(4-(7H-pyrrolo[2,3-d]pyrimidin-4-yl)-1H-pyrazol-1-yl)-4-(4-(3-chloro-4-methoxybenzoyl)piperazin-1-yl)butanenitrile trifluoroacetate salt] | < 10 | 10 to 50 |  |  | 
CCC(CN1CCN(C(=O)c2ccc(O)cc2Cl)CC1)n1cc(-c2ncnc3[nH]ccc23)cn1 (stereo not shown) [Example 122, (4-(2-(4-(7H-pyrrolo[2,3-d]pyrimidin-4-yl)-1H-pyrazol-1-yl)butyl)piperazin-1-yl)(2-chloro-4-hydroxyphenyl)methanone] |  |  | < 20 | 50 to 100 | 
N#CCC(CN1CCN(S(=O)(=O)c2cc(F)ccc2F)CC1)n1cc(-c2ncnc3[nH]ccc23)cn1 (stereo not shown) [Example 62, 3-(4-(7H-pyrrolo[2,3-d]pyrimidin-4-yl)-1H-pyrazol-1-yl)-4-(4-(2,5-difluorophenylsulfonyl)piperazin-1-yl)butanenitrile trifluoroacetate salt] | < 10 | < 10 |  |  | 
N#CCC(CN1CCN(C(=O)c2ccc(C#N)cc2)CC1)n1cc(-c2ncnc3[nH]ccc23)cn1 (stereo not shown) [Example 2, 4-[(4-{3-cyano-2-[4-(7H-pyrrolo[2,3-d]pyrimidin-4-yl)-1H-pyrazol-1-yl]propyl}piperazin-1-yl)carbonyl]benzonitrile] |  |  |  |  | IC50 ([1]; 1 mM ATP, Examples 1-11, read-out: IC50 (nM) @ 1 mM ATP JAK1): < 10 nM; IC50 [1, 6]: < 10 nM; IC50 (Jak2 (a.a. 828-1132); [7]): > 20 nM; IC50 (Jak2 (a.a. 828-1132); [8]): 10 to 20 nM
CCC(CN1CCN(C(=O)c2ccc(F)cc2)CC1)n1cc(-c2ncnc3[nH]ccc23)cn1 (stereo not shown) [Example 116, (4-(2-(4-(7H-pyrrolo[2,3-d]pyrimidin-4-yl)-1H-pyrazol-1-yl)butyl)piperazin-1-yl)(4-fluorophenyl)methanone] |  |  | 20 to 50 | > 100 | 
COCC1CN(C(=O)c2ccc(C#N)cc2F)CCN1CC(CC#N)n1cc(-c2ncnc3[nH]ccc23)cn1 (single isomer, unassigned) [Example 157—peak 1, 4-{[4-{3-cyano-2-[4-(7H-pyrrolo[2,3-d]pyrimidin-4-yl)-1H-pyrazol-1-yl]propyl}-3-(methoxymethyl)piperazin-1-yl]carbonyl}-3-fluorobenzonitrile] |  |  | > 100 | > 100 | 
CCC(CN1CCN(S(=O)(=O)c2ccc(F)cc2F)CC1)n1cc(-c2ncnc3[nH]ccc23)cn1 (stereo not shown) [Example 140, 4-(1-(1-(4-(2,4-difluorophenylsulfonyl)piperazin-1-yl)butan-2-yl)-1H-pyrazol-4-yl)-7H-pyrrolo[2,3-d]pyrimidine] |  |  | < 20 | 50 to 100 | 
CC(CN1CCN(S(=O)(=O)c2ccccc2C#N)CC1)n1cc(-c2ncnc3[nH]ccc23)cn1 (stereo not shown) [Example 94, 2-[(4-{2-[4-(7H-pyrrolo[2,3-d]pyrimidin-4-yl)-1H-pyrazol-1-yl]propyl}piperazin-1-yl)sulfonyl]benzonitrile] |  |  | 20 to 50 | > 100 | 
N#CCC(CN1CCN(C(=O)c2ccc(F)cc2C(F)(F)F)CC1)n1cc(-c2ncnc3[nH]ccc23)cn1 (stereo not shown) [Example 59] | 10 to 50 | > 100 |  |  | 
N#CCC(CN1CCN(C(=O)c2ccccn2)CC1)n1cc(-c2ncnc3[nH]ccc23)cn1 (stereo not shown) [Example 58, 3-(4-(7H-pyrrolo[2,3-d]pyrimidin-4-yl)-1H-pyrazol-1-yl)-4-(4-picolinoylpiperazin-1-yl)butanenitrile] | 10 to 50 | > 100 |  |  | 
N#CCC(CN1CCCN(S(=O)(=O)c2ccccc2C(F)(F)F)CC1)n1cc(-c2ncnc3[nH]ccc23)cn1 (stereo not shown) [Example 109, 3-[4-(7H-pyrrolo[2,3-d]pyrimidin-4-yl)-1H-pyrazol-1-yl]-4-(4-{[2-(trifluoromethyl)phenyl]sulfonyl}-1,4-diazepan-1-yl)butanenitrile] |  |  | 20 to 50 | > 100 | 
